Assays:
in vivo = settings: SD, rat, in vivo, po, 40 mg/kg
Procedure: After being starved for 16 hours, SD rats were orally administered at a dose of 40 mg/5 ml/kg with the compounds of interest and at a dose of 50 mg/5 ml/kg with the control. Immediately after being drawn at predetermined times from the eyeballs, blood was separated into plasma and other ingredients and quantitatively analyzed for pharmacokinetic parameters by use of high performance liquid chromatograph (HPLC).

[1] = tested on: Staphylococcus aureus and Staphylococcus epidermis, both resistant to quinolone antibacterial agents; test: Antibacterial activity in vitro, potency comparison; type: cell-based; settings: for times as potent in antibacterial activity as ciprofloxacin / times as potent in antibacterial activity as sparfloxacin: against resistant Staphylococcus aureus and Staphylococcus epidermis; for fold more potent antibacterial activity than its enantiomer / fold more potent antibacterial activity than its racemate: against resistant staphylcoccus aureus and staphylococcus epidermis (Table 2)
Procedure: (§1) The optically active quinoline carboxylic acid derivatives of the present invention were tested as to whether they could be useful as antibacterial compounds. In this regard, the compounds were measured for minimum inhibitory concentration (MIC: unit μg/ml) according to an agar dilution process (Hoechst 345) in which Muller-Hinton agars were diluted two fold. For comparison, ciprofloxacin and sparfloxacin were used as controls. Corresponding enantiomers and racemates of the compounds of interest were also used as comparative ones. Bacteria were inoculated at an amount of about 10^7 cfu/ml onto each agar. 18 hours after the inoculation at 37° C., the growth of the bacteria was observed. As to methicillin-resistant strains, their growth was observed 48 hours after the inoculation at […]. Hoechst standard strains were used as the test bacteria.

Escherichia coli = test: as above; type: cell-based; settings: against Escherichia coli, a representative Gram-negative strain
Procedure: as §1

Gram-positive bacteria = test: as above; type: cell-based; settings: against Gram-positive bacteria
Procedure: as §1

Enterobacter cloacae P99 = test: Antibacterial activity in vitro (MIC, agar dilution); type: cell-based; settings: standard strain Enterobacter cloacae P99, read-out: minimum inhibitory concentration (MIC)
From the text: Corresponding enantiomers and racemates of the compounds of interest were also used as comparative ones. Bacteria were inoculated at an amount of about 10^7 cfu/ml onto each agar. […] Hoechst standard strains were used as the test bacteria.

[2] = tested on: Streptococus pyogenes 77A; test: as above; type: cell-based; settings: standard strain Streptococus pyogenes 77A, read-out: minimum inhibitory concentration (MIC)
Procedure: as §1

[3] = tested on: Streptococus pyogenes 308A; test: as above; type: cell-based; settings: standard strain Streptococus pyogenes 308A, read-out: minimum inhibitory concentration (MIC)
Procedure: as §1

[4] = tested on: Staphylococcus aureus 285; test: as above; type: cell-based; settings: standard strain Staphylococcus aureus 285, read-out: minimum inhibitory concentration (MIC)
Procedure: as §1

Escherichia coli DC 2 = test: as above; type: cell-based; settings: DC2, standard strain Escherichia coli DC 2, read-out: minimum inhibitory concentration (MIC)
Procedure: as §1

Escherichia coli DC 0 = test: as above; type: cell-based; settings: DC0, standard strain Escherichia coli DC 0, read-out: minimum inhibitory concentration (MIC)
Procedure: as §1

[5] = tested on: Staphylococcus aureus 690E; test: as above; type: cell-based; settings: resistant strain Staphylococcus aureus 690E, read-out: minimum inhibitory concentration (MIC)
Procedure: as §1

[6] = tested on: Staphylococcus aureus 256E; test: as above; type: cell-based; settings: resistant strain Staphylococcus aureus 256E, read-out: minimum inhibitory concentration (MIC)
Procedure: as §1

[7] = tested on: Staphylococcus aureus 303; test: as above; type: cell-based; settings: resistant strain Staphylococcus aureus 303, read-out: minimum inhibitory concentration (MIC)
Procedure: as §1

[8] = tested on: Staphylococcus aureus 241; test: as above; type: cell-based; settings: resistant strain Staphylococcus aureus 241, read-out: minimum inhibitory concentration (MIC)
Procedure: as §1

[9] = tested on: Staphylococcus aureus 179; test: as above; type: cell-based; settings: resistant strain Staphylococcus aureus 179, read-out: minimum inhibitory concentration (MIC)
Procedure: as §1

[10] = tested on: Staphylococcus aureus 503; test: as above; type: cell-based; settings: standard strain Staphylococcus aureus 503, read-out: minimum inhibitory concentration (MIC)
Procedure: as §1

[11] = tested on: Staphylococcus aureus 693E; test: as above; type: cell-based; settings: resistant strain Staphylococcus aureus 693E, read-out: minimum inhibitory concentration (MIC)
Procedure: as §1

[12] = tested on: Staphylococcus aureus 208E; test: as above; type: cell-based; settings: resistant strain Staphylococcus aureus 208E, read-out: minimum inhibitory concentration (MIC)
Procedure: as §1

[13] = tested on: Staphylococcus aureus 121E; test: as above; type: cell-based; settings: resistant strain Staphylococcus aureus 121E, read-out: minimum inhibitory concentration (MIC)
Procedure: as §1

[14] = tested on: Staphylococcus aureus 293; test: as above; type: cell-based; settings: resistant strain Staphylococcus aureus 293, read-out: minimum inhibitory concentration (MIC)
Procedure: as §1

[15] = tested on: Streptococus faecium MD 8b; test: as above; type: cell-based; settings: standard strain Streptococus faecium MD 8b, read-out: minimum inhibitory concentration (MIC)
Procedure: as §1

[16] = tested on: Pseudomonas aeruginosa 1771M; test: as above; type: cell-based; settings: read-out: minimum inhibitory concentration (MIC)
Procedure: as §1

[17] = tested on: Staphylococcus aureus 88E; test: as above; type: cell-based; settings: resistant strain Staphylococcus aureus 88E, read-out: minimum inhibitory concentration (MIC)
Procedure: as §1

[18] = tested on: Staphylococcus aureus SG511; test: as above; type: cell-based; settings: standard strain Staphylococcus aureus SG511, read-out: minimum inhibitory concentration (MIC)
Procedure: as §1

[19] = tested on: Staphylococcus aureus 692E; test: as above; type: cell-based; settings: resistant strain Staphylococcus aureus 692E, read-out: minimum inhibitory concentration (MIC)
Procedure: as §1

[20] = tested on: Staphylococcus epidermidis 329; test: as above; type: cell-based; settings: Staphylococcus epidermidis, 329, resistant strain Staphylococcus epidermidis 329, read-out: minimum inhibitory concentration (MIC)
Procedure: as §1

[21] = tested on: Staphylococcus epidermidis 319; test: as above; type: cell-based; settings: Staphylococcus epidermidis, 319, resistant strain Staphylococcus epidermidis 319, read-out: minimum inhibitory concentration (MIC)
Procedure: as §1

Phototoxicity test = type: in vivo; settings: CD-1 female mice, oral 50 mg/kg
Procedure: It is known that the presence of a halogen atom at the 8-position of the quinolone nuclei causes phototoxicity.
After 16 hours of starvation, CD-1 female mice were orally administered with a dose of 50 mg/kg of the compounds and allowed to be exposed for 4.5 hours to a UVA light source. The mice were located 15 cm away from the light source. Whether the mice were damaged in their ears was adopted as a main factor for the phototoxicity and determined after 24 hour and 48 hour UV exposure. The edema which the mice suffered were examined by measuring the thickness changes of their ears with the aid of electronic calipers and calculating average values. Also, an observation was made as to whether the mice suffered from erythema.

[22] = after 48 hours of the UV exposure

| SMILES | Cmax (in vivo) [ng/mL] | half-life (in vivo) [h] | times as potent in antibacterial activity as ciprofloxacin [1] | times as potent in antibacterial activity as sparfloxacin [1] | fold more potent antibacterial activity than its enantiomer [1] | fold more potent antibacterial activity than its racemate [1] | fold more potent antibacterial effect than ciprofloxacin (Escherichia coli) | fold more potent antibacterial effect than sparfloxacin (Escherichia coli) | fold higher antibacterial activity than ciprofloxacin (Gram-positive bacteria) | fold higher antibacterial activity than sparfloxacin (Gram-positive bacteria) | MIC (Enterobacter cloacae P99) [µg/mL] | MIC [2] [µg/mL] | MIC [3] [µg/mL] | MIC [4] [µg/mL] | MIC (Escherichia coli DC 2) [µg/mL] | MIC (Escherichia coli DC 0) [µg/mL] | MIC [5] [µg/mL] | MIC [6] [µg/mL] | MIC [7] [µg/mL] | MIC [8] [µg/mL] | also measured |
| --- | --- | --- | --- | --- | --- | --- | --- | --- | --- | --- | --- | --- | --- | --- | --- | --- | --- | --- | --- | --- | --- |
| CO/N=C1\CN(c2nc3c(cc2F)c(=O)c(C(=O)O)cn3C2CC2)CC1(C)CN.Cl (single isomer, unassigned; (-)) [Example 9, (−)-7-(4-Aminomethyl-4-methyl-3-(Z)-methyloxyiminopyrrolidin-1-yl)-1-cyclopropyl-6-fluoro-4-oxo-1,4-dihydro[1,8]naphthyridine-3-carboxylic Acid Hydrochloride] | 9060 ± 2040 | 4.5 | 128-390 times | 24-64 times | 8-32 fold | 4 fold | almost the same antibacterial potency | almost the same antibacterial potency | 4-112 fold | 4-30 fold | 0.025 | 0.013 | 0.025 | 0.007 | 0.195 | 0.004 | < 0.002 | < 0.002 | 0.098 | 0.098 | MIC [9]: 0.098 µg/mL; MIC [10]: 0.004 µg/mL; MIC [11]: < 0.002 µg/mL; MIC [12]: < 0.002 µg/mL; MIC [13]: < 0.002 µg/mL; MIC [14]: 0.098 µg/mL; MIC [15]: 0.049 µg/mL; MIC [16]: 0.391 µg/mL; MIC [17]: < 0.002 µg/mL; MIC [18]: 0.004 µg/mL; MIC [19]: < 0.002 µg/mL |
| CO/N=C1\CN(c2c(F)c(N)c3c(=O)c(C(=O)O)cn(C4CC4)c3c2F)CC1(C)CN.Cl (single isomer, unassigned; (-)) [Example 14, (−)-5-Amino-7-(4-aminomethyl-4-methyl-3-(Z)-methyloxyiminopyrrolidin-1-yl)-1-cyclopropyl-6,8-difluoro-4-oxo-1,4-dihydro-3-quinolinecarboxylic Acid Hydrochloride] | 6670 ± 3330 | 6.94 | 129-962 times | 24-481 times | 2-63 fold | up to four fold more potent | 49 fold | 12-49 fold | 30-781 fold | 24-195 fold | < 0.002 | < 0.002 | 0.004 | < 0.002 | < 0.002 | 0.004 | < 0.002 | < 0.002 | 0.013 | 0.013 | MIC [20]: 0.025 µg/mL; MIC [9]: 0.013 µg/mL; MIC [10]: < 0.002 µg/mL; MIC [11]: < 0.002 µg/mL; MIC [12]: < 0.002 µg/mL; MIC [21]: 0.025 µg/mL; MIC [13]: < 0.002 µg/mL; MIC [14]: 0.013 µg/mL; MIC [15]: 0.013 µg/mL; MIC [16]: 0.195 µg/mL; MIC [17]: < 0.002 µg/mL; MIC [18]: < 0.002 µg/mL; MIC [19]: < 0.002 µg/mL; Thickness of mice's ears after UV exposure, After 24 hr (Phototoxicity test; UVA light source): 21.6 ± 0.52; Thickness of mice's ears after UV exposure, After 48 hr (Phototoxicity test; UVA light source): 21.6 ± 0.52; edema and erythema observed after UV exposure (Phototoxicity test; [22]): no erythema was observed; increase in ear thickness compared with before the UV exposure (Phototoxicity test; [22]): 16.8%; Thickness of mice's ears, Before UV exposure (Phototoxicity test; baseline before UVA): 18.5 ± 0.76 |

Reference: patent publication US6649763B1, “Optically active quinoline carboxylic acid derivatives with 7-pyrrolidine substituents causing optical activity and a process for the preparation thereof” (Dong Wha Pharm. Ind. Co., Ltd., priority 1999, dated 2003)
